Source: publication PMC10187112 (Journal of Enzyme Inhibition and Medicinal Chemistry, 2023)
Like-named read-outs stand apart in the source and are kept apart here.

Legend:
human 5-HT7 receptor = target: T1, human 5-HT7 receptor (Homo sapiens, UniProt P34969); experiment: Competition radioligand binding, [3H]-SB269970, HEK293 membranes
T1 construct: expressed in transfected cells; host or cells: HEK293
Protocol: (§1) Competition radioligand binding assays were performed on membranes isolated from cell lines stable expressing the cloned human receptors, which were either in-house or commercially available. […] Assays (250 μL assay final volume) were carried out in 96-well polypropylene plates in duplicate. In short, suspension of appropriate membrane protein was incubated in assay buffer with addition of the corresponding radioligand, in the presence or absence of tested compound or reference compound. […] After the incubation, the content of the test plates was transferred to 96-well plates with glass fibre filter GF/B or GF/C, previously pre-treated with polyethyleneimine (PEI), and rapidly filtered with the use of vacuum, followed by rapid washing with cold (4 °C) wash buffer. After that the filter plates were dried at 60 °C for 1 h. Then, 30 μL of liquid scintillation cocktail (UniverSol-ES, MP Biomedicals, Solon, OH) was added to each well of the filter plates and the radioactivity was measured in a MicroBeta2 microplate scintillation counter (PerkinElmer, Madrid, Spain).
(§2) Competition binding curves were fitted to a one-site competition binding model (Fit Ki) with the use of Prism 7 software (GraphPad, San Diego, CA). logKi (log of the equilibrium dissociation constant (Ki)) values were obtained after constraining the concentration of radioligand employed in the assay and its dissociation constant (KD) as determined in saturation radioligand binding assays.

[1] = target: T2, human serotonin 5-HT1A receptor (Homo sapiens, UniProt P08908); experiment: Competition radioligand binding, [3H]-8-OH-DPAT, HEK293 membranes; details: human cloned 5-HT1A
T2 construct: expressed in transfected cells; host or cells: HEK293
T2 sequence (P08908 1-422): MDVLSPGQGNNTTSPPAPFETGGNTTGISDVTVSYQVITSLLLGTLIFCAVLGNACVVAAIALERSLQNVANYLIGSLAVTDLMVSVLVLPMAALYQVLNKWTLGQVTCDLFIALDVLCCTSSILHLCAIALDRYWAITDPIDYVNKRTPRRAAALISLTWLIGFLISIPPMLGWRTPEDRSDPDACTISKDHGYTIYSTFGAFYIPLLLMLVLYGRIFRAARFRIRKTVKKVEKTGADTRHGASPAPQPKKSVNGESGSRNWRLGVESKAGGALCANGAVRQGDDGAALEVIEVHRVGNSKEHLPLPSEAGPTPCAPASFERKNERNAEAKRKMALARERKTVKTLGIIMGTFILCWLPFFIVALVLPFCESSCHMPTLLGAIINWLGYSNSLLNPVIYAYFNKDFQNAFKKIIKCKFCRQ
Protocol: (§3) Experiments were carried out in membranes from cell lines stably expressing the human cloned receptors.
as §1, §2

human 5-HT2A receptor = target: T3, human 5-HT2A receptor (Homo sapiens, UniProt P28223); experiment: Functional assay of inositol phosphate production (5-HT2A antagonism), CHO-K1 cells; format: cell-based; details: for inhibition at 10 µM: CHO-K1, read-out: 5-HT2A antagonism %inh. of 5-HT response; for Kb: read-out: 5-HT2A antagonism (IP signalling) Kb
T3 construct: expressed in transfected cells; host or cells: CHO-K1
T3 sequence (P28223 whole entry): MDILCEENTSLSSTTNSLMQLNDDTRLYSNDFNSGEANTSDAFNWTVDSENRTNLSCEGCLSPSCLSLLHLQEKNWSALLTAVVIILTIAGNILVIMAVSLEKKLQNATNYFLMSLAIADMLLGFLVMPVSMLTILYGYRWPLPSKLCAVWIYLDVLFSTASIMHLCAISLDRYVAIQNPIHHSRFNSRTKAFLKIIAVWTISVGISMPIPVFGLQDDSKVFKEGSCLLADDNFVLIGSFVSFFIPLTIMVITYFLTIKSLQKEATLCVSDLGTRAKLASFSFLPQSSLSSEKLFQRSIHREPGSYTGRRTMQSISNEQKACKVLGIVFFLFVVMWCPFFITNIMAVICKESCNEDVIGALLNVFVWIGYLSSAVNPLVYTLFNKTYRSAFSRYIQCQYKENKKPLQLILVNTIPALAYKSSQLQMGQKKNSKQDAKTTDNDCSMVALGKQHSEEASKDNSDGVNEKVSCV
Protocol: The activity of selected compounds at 5-HT2A receptors was investigated in cell-based functional assays of IP production in the CHO-K1 cell line stably expressing the cloned human 5-HT2A receptor also employed for the radioligand binding assays. Twenty-four hours before the experiment, cells in culture were seeded in complete growth medium prepared with dialysed foetal bovine serum, in half-area, white, 96-well tissue culture plates (Corning®, Fisher Scientific SL, Madrid, Spain). At the day of assay, plates were washed with assay buffer (kit stimulation buffer) and incubated with test compounds for 10 min at 37 °C. Test compounds were added to the assay plates from 7× working dilution intermediate plates that were prepared by means of acoustic noncontact dispensing of the compounds, keeping vehicle concentration (0.1% DMSO) constant in the assay. […] After this time, cellular IP levels were quantified by using the HTRF-based inositol monophosphate kit IP-One Gq kit (Cisbio, Bioassays, Codolet, France) following the manufacturer’s protocol. […] Basal IP levels were determined in control wells in the absence of compound and agonist. […] Kb value of the compounds was estimated as described above for functional assays of cAMP signalling at D2 receptors.

mice [2] = experiment: Elevated plus maze (EPM) test (anxiety); details: 60 min before test
[3] = target: T4, human dopamine D1 receptor (Homo sapiens, UniProt P21728); experiment: Competition radioligand binding, [3H]-SCH-23390, CHO-K1 membranes
T4 construct: expressed in transfected cells; host or cells: CHO-K1
T4 sequence (P21728 whole entry): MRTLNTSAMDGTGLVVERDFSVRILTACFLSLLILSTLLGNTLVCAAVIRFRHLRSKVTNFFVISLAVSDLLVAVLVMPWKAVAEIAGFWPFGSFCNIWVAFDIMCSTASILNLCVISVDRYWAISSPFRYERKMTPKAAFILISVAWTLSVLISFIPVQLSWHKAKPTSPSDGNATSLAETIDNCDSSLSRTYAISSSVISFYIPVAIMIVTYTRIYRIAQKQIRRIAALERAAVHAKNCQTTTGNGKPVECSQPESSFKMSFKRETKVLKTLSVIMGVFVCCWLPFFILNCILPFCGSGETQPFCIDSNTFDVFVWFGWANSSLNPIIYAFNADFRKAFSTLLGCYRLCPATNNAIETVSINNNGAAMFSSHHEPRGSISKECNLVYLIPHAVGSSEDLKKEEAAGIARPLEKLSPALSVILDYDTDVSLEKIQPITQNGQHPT
Protocol: Competition radioligand binding assays were performed on membranes isolated from cell lines stable expressing the cloned human receptors, which were either in-house or commercially available. […] Assays (250 μL assay final volume) were carried out in 96-well polypropylene plates in duplicate. In short, suspension of appropriate membrane protein was incubated in assay buffer with addition of the corresponding radioligand, in the presence or absence of tested compound or reference compound. […] Then, 30 μL of liquid scintillation cocktail (UniverSol-ES, MP Biomedicals, Solon, OH) was added to each well of the filter plates and the radioactivity was measured in a MicroBeta2 microplate scintillation counter (PerkinElmer, Madrid, Spain).
as §2

mice [4] = experiment: Spontaneous locomotor activity; details: recorded 30 min, 30 min after injection
mice [5] = experiment: Amphetamine-induced hyperactivity; details: p < 0.0001; for Effect on amphetamine-induced hyperactivity: 30 min before amphetamine 5 mg/kg s.c.
[6] = target: T5, human serotonin 5-HT2A receptor (Homo sapiens, UniProt P28223); experiment: Competition radioligand binding, [3H]-Ketanserin, CHO-K1 membranes; details: for Ki: human cloned 5-HT2A; for pKi 5-HT2A/pKi D2: ratio of pKi values
T5 construct: expressed in transfected cells; host or cells: CHO-K1
T5 sequence (P28223 whole entry): as the sequence (P28223 whole entry) above
Protocol: as §3, §1, §2

mice [7] = experiment: Rota-rod test (motor coordination); format: in vivo; details: 60 min after treatment, 3 min
Protocol: To fully assess the impact of selected compounds on animals’ motor coordination, both compounds (at the same doses as were used for spontaneous locomotor activity measurements) were tested also in the rota-rod test. The applied protocol has been already validated in our laboratory[12]^,[62]^,[63]. […] The time spent by each mouse on the rota-rod was measured for 3 min. The additional aim of the rota-rod test was to confirm the appropriate selection of doses for further behavioural examination. […] After such confirmation, the above-mentioned doses were chosen for the rest of behavioural tests.

mice [8] = experiment: Passive avoidance (PA) test (memory); details: 60 min before test
[9] = target: T6, human dopamine D3 receptor (Homo sapiens, UniProt P35462); experiment: Competition radioligand binding, [3H]-spiperone, CHO-K1 membranes
T6 construct: expressed in transfected cells; host or cells: CHO-K1
T6 sequence (P35462 whole entry): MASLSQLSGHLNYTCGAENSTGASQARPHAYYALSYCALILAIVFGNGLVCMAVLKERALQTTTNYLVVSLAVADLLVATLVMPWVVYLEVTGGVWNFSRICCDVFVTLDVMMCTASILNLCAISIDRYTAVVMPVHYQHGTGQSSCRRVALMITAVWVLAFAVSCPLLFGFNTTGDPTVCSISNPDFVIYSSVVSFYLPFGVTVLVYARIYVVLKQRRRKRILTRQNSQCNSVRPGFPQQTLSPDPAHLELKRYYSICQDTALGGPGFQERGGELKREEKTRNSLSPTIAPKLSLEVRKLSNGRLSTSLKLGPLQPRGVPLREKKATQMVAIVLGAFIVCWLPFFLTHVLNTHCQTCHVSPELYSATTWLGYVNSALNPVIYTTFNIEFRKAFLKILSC
Protocol: as §1, §2

[10] = target: T7, human dopamine D2 (D2S) receptor (Homo sapiens, UniProt P14416); experiment: as above; details: human cloned D2S; read-out: Ki D2 (converted)
T7 construct: expressed in transfected cells; host or cells: CHO-K1
T7 sequence (P14416 1-414 isoform P14416-2): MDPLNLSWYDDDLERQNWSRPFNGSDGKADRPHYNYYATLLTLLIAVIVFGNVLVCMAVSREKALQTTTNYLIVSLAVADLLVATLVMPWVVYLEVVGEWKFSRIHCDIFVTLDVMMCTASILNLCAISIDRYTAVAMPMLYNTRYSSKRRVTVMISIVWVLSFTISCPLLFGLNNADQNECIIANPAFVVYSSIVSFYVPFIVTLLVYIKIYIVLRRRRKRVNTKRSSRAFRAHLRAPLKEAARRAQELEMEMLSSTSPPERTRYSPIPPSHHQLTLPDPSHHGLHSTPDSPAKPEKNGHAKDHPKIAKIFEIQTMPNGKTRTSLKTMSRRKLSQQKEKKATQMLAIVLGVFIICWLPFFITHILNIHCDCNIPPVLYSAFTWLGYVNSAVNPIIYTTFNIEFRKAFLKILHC
Protocol: as §3, §1, §2

human D2S receptor = human D2S receptor (Homo sapiens, UniProt P14416); experiment: Functional assay of cAMP signalling (D2 antagonism), CHO-K1 cells; details: for inhibition at 1 µM: CHO-K1, read-out: % of inhibition of 1 µM dopamine response; for inhibition at 10 µM: CHO-K1, read-out: D2 antagonism %inh. of DA response
Sequence of human D2S receptor (P14416 1-414 isoform P14416-2): as above

[11] = target: T8, human muscarinic M1 receptor (Homo sapiens, UniProt P11229); experiment: Competition radioligand binding, [3H]-pirenzepine, CHO-K1 membranes; details: read-out: % inh. at 10 μM M1
T8 construct: expressed in transfected cells; host or cells: CHO-K1
T8 sequence (P11229 1-460): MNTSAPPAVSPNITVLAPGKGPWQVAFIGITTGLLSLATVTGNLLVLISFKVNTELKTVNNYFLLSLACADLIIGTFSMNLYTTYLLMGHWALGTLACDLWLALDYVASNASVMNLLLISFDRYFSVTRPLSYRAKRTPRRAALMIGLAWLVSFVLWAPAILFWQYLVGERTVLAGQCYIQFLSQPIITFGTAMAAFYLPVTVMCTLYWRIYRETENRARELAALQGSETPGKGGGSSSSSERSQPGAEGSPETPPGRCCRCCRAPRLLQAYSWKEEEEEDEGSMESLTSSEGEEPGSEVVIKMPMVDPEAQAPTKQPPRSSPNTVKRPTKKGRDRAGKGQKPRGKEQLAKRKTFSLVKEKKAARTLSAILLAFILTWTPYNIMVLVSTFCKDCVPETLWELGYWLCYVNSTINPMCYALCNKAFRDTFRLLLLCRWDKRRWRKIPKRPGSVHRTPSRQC
Protocol: as §1, §2

[12] = target: T9, human histamine H1 receptor (Homo sapiens, UniProt P35367); experiment: Competition radioligand binding, [3H]-pyrilamine, CHO-K1 membranes
T9 construct: expressed in transfected cells; host or cells: CHO-K1
T9 sequence (P35367 whole entry): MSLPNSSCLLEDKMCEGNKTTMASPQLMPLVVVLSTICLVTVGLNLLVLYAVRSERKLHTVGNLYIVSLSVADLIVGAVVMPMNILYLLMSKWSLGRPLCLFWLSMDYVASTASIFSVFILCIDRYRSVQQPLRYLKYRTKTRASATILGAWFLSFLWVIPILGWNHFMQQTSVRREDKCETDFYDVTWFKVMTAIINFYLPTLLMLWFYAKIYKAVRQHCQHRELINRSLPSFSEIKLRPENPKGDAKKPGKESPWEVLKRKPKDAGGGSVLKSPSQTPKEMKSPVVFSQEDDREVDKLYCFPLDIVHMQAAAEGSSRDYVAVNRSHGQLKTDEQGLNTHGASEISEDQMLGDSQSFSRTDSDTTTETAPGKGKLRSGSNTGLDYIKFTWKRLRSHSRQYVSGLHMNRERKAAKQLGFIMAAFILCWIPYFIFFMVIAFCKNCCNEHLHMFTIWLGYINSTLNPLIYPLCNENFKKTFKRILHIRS
Protocol: as §1, §2

human 5-HT1A receptor = target: T10, human 5-HT1A receptor (Homo sapiens, UniProt P08908); experiment: Functional assay of cAMP signalling (5-HT1A agonism), HEK293 cells; format: cell-based; details: for inhibition at 10 µM: HEK293, 10 µM compound, 1 µM forskolin, read-out: 5-HT1A agonism %inh. of FSK response
T10 construct: expressed in transfected cells; host or cells: HEK293
T10 sequence (P08908 1-422): T2 sequence (P08908 1-422)
Protocol: The activity of selected compounds at 5-HT1A receptor was investigated in cell-based functional assays of cAMP signalling in the HEK293 cell line stably expressing the cloned human 5-HT1A receptor also employed for the radioligand binding assays. […] Test compounds were added to the assay plates from 5× working dilution intermediate plates, which were prepared by means of acoustic noncontact dispensing of the compounds, keeping vehicle concentration (0.1% DMSO) constant in the assay.

[13] = read-out: Ki 5-HT1A (converted)

T1 sequence (P34969 whole entry): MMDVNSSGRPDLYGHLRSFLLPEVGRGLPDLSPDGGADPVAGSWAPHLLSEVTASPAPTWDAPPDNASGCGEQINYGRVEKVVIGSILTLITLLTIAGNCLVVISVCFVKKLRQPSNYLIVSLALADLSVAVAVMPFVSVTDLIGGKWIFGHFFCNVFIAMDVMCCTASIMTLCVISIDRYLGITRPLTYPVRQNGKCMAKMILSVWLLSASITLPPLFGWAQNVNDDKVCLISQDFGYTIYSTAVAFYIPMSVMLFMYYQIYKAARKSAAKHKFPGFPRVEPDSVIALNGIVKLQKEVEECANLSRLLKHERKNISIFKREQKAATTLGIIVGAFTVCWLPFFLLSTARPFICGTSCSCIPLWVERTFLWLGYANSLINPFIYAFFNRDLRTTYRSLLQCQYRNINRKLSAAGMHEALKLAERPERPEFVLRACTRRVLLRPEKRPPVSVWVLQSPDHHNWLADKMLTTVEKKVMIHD

SMILES	Ki (human 5-HT7 receptor)	Ki [1, 13]	inhibition at 10 µM (human 5-HT2A receptor)	Kb (human 5-HT2A receptor)	Ki [3]	Ki [6]	pKi 5-HT2A/pKi D2 [6]	Ki [9]	Ki [10]	Kb (human D2S receptor)	inhibition at 1 µM (human D2S receptor)	inhibition at 10 µM (human D2S receptor)	inhibition at 10 µM [11]	Ki [12]	EC50 (human 5-HT1A receptor)	inhibition at 10 µM (human 5-HT1A receptor)	further results
O=C(NCCCN1CCN(c2ccccc2)CC1)c1n[nH]c2ccccc12 [Compound 1, N-(3-(4-phenylpiperazin-1-yl)propyl)-1H-indazole-3-carboxamide]	540 nM	155 nM	99.1 ± 2.5%	80.2 ± 20.1 nM	241 nM	35.6 nM	1.04	711 nM	69 nM	22.5 nM	48.5 ± 4.9%	50.3 ± 6.3%	21 ± 6%	474 nM	324 ± 69 nM	85.1 ± 3.3%	Effect on anxiety in EPM test (mice [2]; 10 mg/kg i.p.): anxiolytic effect; Percentage of open arm entries (EPM) (mice [2]; 10 mg/kg i.p., vs. control): increase; Percentage of open arm time (EPM) (mice [2]; 10 mg/kg i.p., vs. control): increase; Spontaneous locomotor activity (mice [4]; 10 mg/kg i.p.): did not impair animals’ mobility; Spontaneous locomotor activity (mice [4]; 20 mg/kg i.p., p < 0.05): statistically significant decrease in the locomotor activity; Spontaneous locomotor activity (mice [4]; 40 mg/kg i.p., p < 0.05): statistically significant decrease in the locomotor activity; Effect on amphetamine-induced hyperactivity (mice [5]; 10 mg/kg i.p.): significantly reduced hyperactivity induced by amphetamine; Motor coordination (rota-rod) (mice [7]; 10, 20, and 40 mg/kg i.p.): lack of statistically significant difference; Effect on PA performance (memory acquisition) (mice [8]; 10 mg/kg i.p.): no statistically significant effect on PA performance
O=C(NCCCN1CCN(c2cccc(F)c2)CC1)c1n[nH]c2ccccc12 [Compound 10, N-(3-(4-(3-fluorophenyl)piperazin-1-yl)propyl)-1H-indazole-3-carboxamide]	589 nM	114 nM	96.8 ± 2%	101 ± 31 nM	181 nM	94.4 nM	1.07	719 nM	–	31.2 nM	50.8 ± 5.4%	52.6 ± 9.8%	0%	1000 nM	356 ± 83 nM	90.2 ± 4.1%	Ki ([1]; mean ± SEM, read-out: pKi 5-HT1A (converted)): 112 nM; Effect on anxiety in EPM test (mice [2]; 40 mg/kg i.p.): no statistically significant effect on the EPM performance; Spontaneous locomotor activity (mice [4]; 20, 40, and 80 mg/kg i.p.): did not induce statistically significant changes; Effect on amphetamine-induced hyperactivity (mice [5]; 40 mg/kg i.p.): significantly reduced hyperactivity induced by amphetamine; Motor coordination (rota-rod) (mice [7]; 20, 40, and 80 mg/kg i.p.): lack of statistically significant difference; Effect on PA performance (memory acquisition) (mice [8]; 40 mg/kg i.p.): no statistically significant effect on PA performance
O=C(NCCCN1CCN(c2ccc(F)cc2)CC1)c1n[nH]c2ccccc12 [Compound 11, N-(3-(4-(4-fluorophenyl)piperazin-1-yl)propyl)-1H-indazole-3-carboxamide]	196 nM	607 nM	103 ± 2.2%	19.2 ± 7.2 nM	–	12.6 nM	1.24	5010 nM	450 nM	99.1 nM	21.3 ± 4.3%	49.7 ± 8%	0%	364 nM	5600 ± 1200 nM	75.3 ± 6.8%	–
CC(N)Cc1ccccc1 (centres unmarked) [amphetamine, reference compound]	–	–	–	–	–	–	–	–	–	–	–	–	–	–	–	–	Locomotor activity vs. vehicle group (mice [5]; 5 mg/kg s.c., recorded 30 min): increased locomotor activity
